# Literature values in patent US20250255800A1, “DETERGENT COMPOSITIONS FOR WASHING URUSHIOL AND METHODS OF TREATING URUSHIOL INDUCED CONTACT DERMATITIS” (THE WILLIAM M. YARBROUGH FOUNDATION, priority 2020, published 2025).
# Assays:
# aquatic organisms = settings: EPA statement / GHS Hazard Statement H411
# [1] = in vitro and in vivo assays
Substance,toxicity to aquatic life (aquatic organisms),estrogenic properties [1]
nonoxynol 9 [nonoxynol-9],toxic to aquatic life with long lasting effects,–
nonylphenol [nonylphenol (NP)],extremely toxic to aquatic organisms,exhibit estrogenic properties
